{ppp} = triphosphate
B1: poly-U/UC PAMP: ~100 nt PAMP motif from the HCV genome comprising 5′ppp and the poly U/UC region, recognized by RIG-I; formulated in liposome (nucleic acid)
chain: GGCCAUCCUGUUUUUUUCCCUUUUUUUUUUUCUUUUUUUUUUUUUUUUUUUUUUUUUUUUUUUUUUCUCCUUUUUUUUUCCUCUUUUUUUCCUUUUCUUUCCUUU
modifications: RNA, 5' {ppp}, backbone and methylation of C not given here; formulated in liposome
notes: ~100 nt PAMP motif from the HCV genome comprising 5′ppp and the poly U/UC region, recognized by RIG-I; formulated in liposome

Columns and labels:
IRF3 = test: Immunofluorescence analysis of IRF3 translocation; format: cell-based, human; details: HepG2-hNTCP cells, 24 hours; F7 10 μM; poly-U/UC PAMP or X-RNA 200 ng/ml in liposome
HBV cccDNA = test: Time-of-addition experiments on cccDNA synthesis; format: cell-based, HBV (Genotype D); details: for HBV cccDNA level: HepG2-hNTCP and dHepaRG
Procedure: FIGS. 3A-3F illustrate that F7 and poly-U/UC PAMP suppress de novo HBV cccDNA synthesis. (3A) Upper: Infection and poly-U/UC PAMP treatment schedule. Cells were treated with 100 ng/ml of poly-U/UC PAMP either for 24 hours before (Pre), for 48 hours after HBV infection (Post), or for 72 hours (pre/post). At 3 dpi cells were harvested and Hirt extracts were prepared (3B) HepG2-hNTCP cells and (3C) dHepaRG cells were analyzed by Southern blot (upper) and RT-qPCR (lower). For RT-qPCR. anal sis, values from DMSO treated control were set to 100% respectively, and data are shown as mean±standard deviations (SD) percentage of cccDNA in control samples. ***P<0.005, and ns=non-significant. (3D) HBV infection and F7 treatment schedule. Cells were treated with F7 (10 μM) either for 24 hours before (Pre), 24 hours during the time of infection (Co), d8 hours after infection (Post), or 96 hours pre/co/post). At 3 Dpi, the cells were harvested and. Hirt extracts prepared HepG2-hNTCP (3E) and dHepaRG cells (3F). Upper panels show Southern blot analysis. Lower panels show or RT-qPCR analysis and percent of cccDNA remaining in treated cells compared to control DMS)-treated cells. Values from DMSO-treated control cultures were set to 100%. Data was presented as mean±standard deviations (SD), *P<0.01, **P<0.005, ***P<0.001, ****P<0.0001 and ns=non-significant. CsA served as a treatment control. For Southern blots the position of mass markers are indicated.
To further define inhibitory effect of F7 and poly-U/UC on cccDNA biosynthesis, time-of-addition experiments were conducted in HepG2-hNTCP and dHepaRG cells. For poly-U/UC PAMP, treatment for 24 hours pre-infection (pre-treatment), from 1 to 3 dpi (post-treatment), and from 24 hours pre-infection onward through 3 dpi (pre/post-treatment) were conducted (FIG. 3A). […]

RIG-I = test: IRF3 activation in RIG-I or MDA5 knockout HepG2-hNTCP cells (immunoblot); format: cell-based, human; details: 24 hours
Procedure: FIGS. 6A-6D illustrate that F7 and poly-U/UC PAMP specifically signal IRF3 activation through RIG-I to suppress HBV cccDNA. (6A) F7 was administered for 24 hours to HepG2-hNTCP-NT (expressing non-targeting guide RNA), RKO (RIG-I knockout expressing RIG-I-targeting guide RNA), and MKO (MDA5-knock out expressing MDA5-targeting guide RNA). Cells were harvested and analyzed by immunoblot. The levels of protein expression by p-IRF3 (S386 phosphorylated, active IRF3), IRF3 (total IRF), IFIT1, RIG-I, and MDA5 relative to the expression level of tubulin were determined using respective antibodies. (6B) HepG2-hNTCP-NT, RKO, and MKO cells were treated with 100 ng,/ml of X-RNA or 100 ng/ml or 200 ng/ml of poly-U/UC PAMP for 24 hr. Cells were harvested and analyzed by immunoblot as in (6A). (6C and 6D) Cells were infected with HBV at moi of 1000 Geq/cell. After 24 hour cultures were treated with DMSO (−; negative control), CsA (treatment control), (6C) 10 μM) or F7 or (6D) X RNA or poly-U/UC PAMP. Three days later the cells were harvested, Hirt extracts prepared and subjected to Southern blot analysis using as HBV-DNA probe. The positions of mass markers are indicated. Values beneath each lane show percent cccDNA remaining compared to control treatment.
In order to ascertain whether the activation of IRF3 and suppression of cccDNA in HBV-infected cells by F7 or poly-U/UC PAMP treatment was dependent on RIG-I rather than occurring as an off-target effect of IRF3 agonist treatment, HepG2-hNTCP cells expressing non-targeting guide RNA (HepG2-hNTCP-NT), or guide RNA for knockout (KO) of RIG-I expression (HepG2-hNTCP-RKO) or MDA5 (HepG2-hNTCP-MKO) were produced using CRISPR/Cas9 genome editing technology. […] Next, each cell population was infected with HBV followed by a single treatment with F7 or poly-U/UC PAMP at 1 dpi. Cells were harvested at 3 dpi for Southern blot analysis of cccDNA levels. Parallel cultures of each cell population were treated with DMSO or single dose X-RNA (negative control) or with CsA as a treatment control. […]

[1] = tested on: innate immune response genes; test: Innate immune gene mRNA expression (RT-qPCR); format: cell-based, human; details: HepG2-hNTCP cells, 24 and 72 hours
[2] = HepG2-hNTCP-RKO (RIG-I knockout) cells

| Molecule | innate immune activation marked by IRF3 translocation into the nucleus (IRF3) | HBV cccDNA level (HBV cccDNA; F7 10 μM administered once pre or co-treatment, 3 dpi) | HBV cccDNA level (HBV cccDNA; F7 10 μM administered post-infection or pre/co/post through 3 dpi) | phosphorylated/activated IRF3 and IFIT1 expression (RIG-I; HepG2-hNTCP-NT control and HepG2-hNTCP-MKO (MDA5 knockout) cells) | phosphorylated/activated IRF3 and IFIT1 expression (RIG-I; [2]) | mRNA expression of innate immune response genes (IFNs, ISGs, IRF3-target genes) [1] | synthesis of cccDNA (HBV cccDNA; poly-U/UC PAMP 100 ng/ml pre-, post- and pre/post-treatment, HepG2-hNTCP and HepaRG cells, 3 dpi) |
| --- | --- | --- | --- | --- | --- | --- | --- |
| O=C(Nc1ccc2nc(NC(=O)c3ccc4ccccc4c3)sc2c1)c1ccccc1 [F7, N-(6-benzamido-1,3-benzothiazol-2-yl)naphthalene-2-carboxamide] | specifically induced innate immune activation | little effect on HBV cccDNA level | significant suppression of cccDNA levels | fully respond to F7 | do not respond to treatment | induced only IRF3-target gene expression | – |
| B1 | specifically induced innate immune activation | – | – | – | do not respond to treatment | induced type I and type III IFN and ISG expression | uniformly significantly suppressed |

From patent publication US20220241314A1, “COMPOSITIONS AND METHODS FOR TREATMENT OF HEPATITIS B VIRUS INFECTION” (priority 2019, published 2022)
